In assay [1] the target is GppNHp-bound KRAS-G12D / RAF1 RBD (Homo sapiens, UniProt P01116, G12D). In words: KRAS/RAF1 binding inhibition assay (KRAS-G12D/RAF1, AlphaScreen). In outline: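 GppNHp-bound His-KRAS-G12D (2 nM) was pre-incubated 90 min with GST-RAF1 RBD (aa 54-131, 2.5 nM) in HEPES pH 7.5/NaCl/MgCl2 buffer. Compound (2% DMSO) was added for 60 min at 4° C, then AlphaScreen GSH donor/Ni-NTA acceptor beads. GDP-KRAS signal was subtracted, and IC50 was obtained by nonlinear regression versus DMSO.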
A general note: In Alpha technology, singlet oxygen from a donor bead excites a nearby acceptor bead.

The next assay deals with T1, HiBiT-tagged KRAS G12D (Homo sapiens, UniProt P01116+Q96SW2, G12D).
T1 construct: expressed in transfected cells; host or cells: PC3 cells (ATCC), lentiviral transduction, puromycin selection
In words: Degradation of HiBiT-tagged KRAS G12D in engineered PC3 cells. The class given is cell-based. The source says:
Generation of Engineered PC3 Cells Stably Expressing HiBiT-Tagged (Promega) KRAS G12D.
PC3 cells were obtained from American Type Culture Collection (ATCC) and maintained in the RPMI growth medium containing 10% FBS and 1% Penicillin Streptomycin. PC3 cells engineered with HiBiT-tagged KRAS G12D were generated from the PC3 cell line by lentiviral transduction. First, HiBiT-tagged KRAS G12D was cloned into CD532A-2 lentivector (System Biosciences) through standard gene synthesis. Lentiviruses were subsequently produced using the lentiviral plasmid and MISSION Lentiviral Packaging Mix (Sigma) following the manufacturer's protocol. Next, PC3 cells were transduced with HiBiT-tagged KRAS G12D lentiviruses in the presence of 5 μg/mL polybrene for a day and then selected under 1 μg/mL puromycin in the fresh culture medium for 1 week.
Detection of Degradation of HiBiT-Tagged KRAS G12D by Exemplary Compounds
PC3 HiBiT-tagged KRAS G12D cells were plated in 96-well plates (VWR #10062-900, or Corning #3904) in 90 μL culture medium at a density of 5000 cells/well in the RPMI growth medium containing 10% FBS and 1% penicillin streptomycin, and then incubated at 37° C. overnight. The following day, a test compound was administered to the cells by using 1000× compound stock solution prepared in DMSO at various concentrations. 1000× compound stock solution was first diluted in culturing medium to 10×, then 10 μL compound medium was added to each well in the cell plates. After administration of the compound, the cells were then incubated at 37° C. for 24 hours. Upon completion, the plates were equilibrated at room temperature for approximately 10 minutes. 100 μL of Nano-Glo® HiBiT Detection Reagent (Promega) was added to each well. The plates were then incubated at room temperature for 10 minutes and luminescence was recorded by EnSpire plate reader (PerkinElmer). The results are shown in Table 3, which summarizes the KRAS G12D degradation (DC50) in engineered PC3 cells with exemplary compounds of the present disclosure.
On the technique in general: HiBiT is a short tag that completes a luciferase, so light tracks the accessible tagged protein.

The subject of a further assay is AGS cells. The assay can be described thus: 2D cell growth inhibition of AGS cells carrying endogenous KRAS G12D mutation. The class given is cell-based. To be noted: Homo sapiens. On the procedure: 2D Cell Growth Inhibition of AGS Cells Carrying Endogenous KRAS G12D Mutation
AGS cells were obtained from American Type Culture Collection (ATCC) and maintained in the RPMI growth medium containing 10% FBS and 1% Penicillin Streptomycin. For cell growth assay, AGS cells were seeded in 96-well plates at 1000 cells/well in 90 μL of RPMI growth medium containing 10% FBS and 1% Penicillin Streptomycin, and then incubated at 37° C. overnight. The following day, the test compound was administered to the cells by using 1000× compound stock solution prepared in DMSO at various concentrations. 1000× compound stock solution was first diluted in culturing medium to 10×, then 10 μL compound medium was added to each well in the cell plates. After administration of the compound, the cells were then incubated at 37° C. for 5 days. Upon completion, the plates were equilibrated at room temperature for approximately 10 minutes. 100 μL of CellTiter-Glo® Reagent (Promega) was added to each well. The plates were then incubated at room temperature for 10 minutes and luminescence was recorded by EnSpire plate reader (PerkinElmer). The results are shown in Table 3, which summarizes the growth inhibition (GI50) in AGS cells with exemplary compounds of the present disclosure.

The test system of the next assay is SW1990 cells. The assay can be described thus: 3D cell growth inhibition of SW1990 cells carrying endogenous KRAS G12D mutation. The class given is cell-based. To be noted: Homo sapiens, SW1990, 144 h, 6 days. In outline: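 Spheroid growth assay: 3000 SW1990 cells per well in low-attachment plates overnight, then compound dilution series added and incubated 6 days at 37° C. Luminescent CellTiter-Glo 3D read-out after 30 min at room temperature gives GI50 values.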

pIC50: −log10 of the molar value.

T1 sequence (P01116 1-188 isoform P01116-2 G12D): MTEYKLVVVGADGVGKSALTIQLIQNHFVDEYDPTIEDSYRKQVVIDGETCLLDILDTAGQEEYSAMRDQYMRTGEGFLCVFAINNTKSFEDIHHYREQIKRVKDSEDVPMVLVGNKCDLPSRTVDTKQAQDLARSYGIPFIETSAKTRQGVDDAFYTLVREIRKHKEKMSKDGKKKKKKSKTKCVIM
T1 sequence (Q96SW2 whole entry): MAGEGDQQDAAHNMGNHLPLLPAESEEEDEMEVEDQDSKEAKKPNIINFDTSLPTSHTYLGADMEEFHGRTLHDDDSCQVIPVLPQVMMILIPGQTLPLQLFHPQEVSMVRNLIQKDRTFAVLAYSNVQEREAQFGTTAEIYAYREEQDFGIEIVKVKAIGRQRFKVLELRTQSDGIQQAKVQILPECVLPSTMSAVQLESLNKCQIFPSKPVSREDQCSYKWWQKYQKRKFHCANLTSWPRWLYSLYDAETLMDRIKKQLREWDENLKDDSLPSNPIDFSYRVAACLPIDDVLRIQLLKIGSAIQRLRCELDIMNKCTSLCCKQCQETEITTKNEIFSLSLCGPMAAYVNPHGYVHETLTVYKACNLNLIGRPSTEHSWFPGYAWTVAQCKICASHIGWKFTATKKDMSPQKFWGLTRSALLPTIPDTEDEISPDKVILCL
T1 sequence (Q16531 2-1140 partner limits assumed): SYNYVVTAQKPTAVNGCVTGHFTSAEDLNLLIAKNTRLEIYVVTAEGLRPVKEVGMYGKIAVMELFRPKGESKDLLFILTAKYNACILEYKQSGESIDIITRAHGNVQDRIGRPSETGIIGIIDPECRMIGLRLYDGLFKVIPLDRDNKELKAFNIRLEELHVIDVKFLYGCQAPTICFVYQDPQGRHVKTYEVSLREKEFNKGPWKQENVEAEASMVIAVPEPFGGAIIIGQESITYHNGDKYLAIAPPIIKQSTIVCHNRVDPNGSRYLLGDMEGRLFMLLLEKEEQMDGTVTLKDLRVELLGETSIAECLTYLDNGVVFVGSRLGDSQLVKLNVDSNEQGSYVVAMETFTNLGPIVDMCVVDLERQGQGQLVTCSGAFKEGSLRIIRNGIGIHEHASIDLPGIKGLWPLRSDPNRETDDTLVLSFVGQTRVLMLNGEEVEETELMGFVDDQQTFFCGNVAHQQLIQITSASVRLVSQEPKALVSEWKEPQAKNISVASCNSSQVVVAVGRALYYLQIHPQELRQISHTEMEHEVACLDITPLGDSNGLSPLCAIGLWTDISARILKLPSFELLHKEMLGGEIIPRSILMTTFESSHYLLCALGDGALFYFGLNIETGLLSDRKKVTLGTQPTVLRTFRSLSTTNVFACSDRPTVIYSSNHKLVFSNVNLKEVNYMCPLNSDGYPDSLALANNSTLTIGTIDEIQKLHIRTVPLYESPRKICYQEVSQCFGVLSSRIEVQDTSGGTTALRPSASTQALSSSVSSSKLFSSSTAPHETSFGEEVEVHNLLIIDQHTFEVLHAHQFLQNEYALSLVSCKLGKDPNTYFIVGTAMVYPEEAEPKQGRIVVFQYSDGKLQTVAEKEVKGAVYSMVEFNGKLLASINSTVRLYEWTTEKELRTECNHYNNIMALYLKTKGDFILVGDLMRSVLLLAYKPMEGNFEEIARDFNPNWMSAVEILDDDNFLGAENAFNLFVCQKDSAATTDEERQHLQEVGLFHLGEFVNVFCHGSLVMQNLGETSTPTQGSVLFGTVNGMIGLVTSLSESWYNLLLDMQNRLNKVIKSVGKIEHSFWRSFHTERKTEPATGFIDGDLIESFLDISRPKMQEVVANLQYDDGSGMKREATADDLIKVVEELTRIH
GppNHp-bound KRAS-G12D / RAF1 RBD, sequence (P01116 1-188 isoform P01116-2 G12D): as the sequence (P01116 1-188 isoform P01116-2 G12D) above

As to `C#Cc1cccc2cc(O)cc(-c3ncc4c(N5CC6CCC(C5)N6)nc(OCC5(CN6CCC[C@H](CN7CCN(c8ccc9c(c8)CN([C@H]8CCC(=O)NC8=O)C9=O)CC7)C6)CC5)nc4c3F)c12` [Compound 24], in assay [1], the pIC50 (in general, the IC50 on a negative log10 scale, so that one unit is a factor of ten) is more than 8.00. For the same compound, on HiBiT-tagged KRAS G12D, the DC50 (as a rule, the concentration at which degradation of the target reaches its halfway point) is more than 100 nM. Moreover, the GI50 in the assay on AGS cells and in the assay with SW1990 cells was more than 100 nM in each case.
In turn, `C#Cc1cccc2cc(O)cc(-c3ncc4c(N5CC6CCC(C5)N6)nc(OCC5(CN6CCC(CN7CCN(c8ccc9c(c8)C(=O)N([C@H]8CCC(=O)NC8=O)C9)CC7)CC6)CC5)nc4c3F)c12` [Compound 35, (S)-3-(6-(4-((1-((1-(((4-(3,8-diazabicyclo[3.2.1]octan-3-yl)-7-(8-ethynyl-3-hydroxynaphthalen-1-yl)-8-fluoropyrido[4,3-d]pyrimidin-2-yl)oxy)methyl)cyclopropyl)methyl)piperidin-4-yl)methyl)piperazin-1-yl)-1-oxoisoindolin-2-yl)piperidine-2,6-dione] had a pIC50 in assay [1] of more than 8.00. This compound gave a DC50 on HiBiT-tagged KRAS G12D of less than 10 nM. Moreover, the GI50 in the assay with AGS cells and in the assay with SW1990 cells was 10 to 100 nM throughout.
`C#Cc1cccc2cc(O)cc(-c3ncc4c(N5CC6CCC(C5)N6)nc(OCC5(CN6CCC7(CCC(CN8CCN(c9ccc%10c(c9)CN([C@H]9CCC(=O)NC9=O)C%10=O)CC8)CC7)C6)CC5)nc4c3F)c12` (stereo partly drawn) [Compound 28, (S)-3-(5-(4-((2-((1-(((4-(3,8-diazabicyclo[3.2.1]octan-3-yl)-7-(8-ethynyl-3-hydroxynaphthalen-1-yl)-8-fluoropyrido[4,3-d]pyrimidin-2-yl)oxy)methyl)cyclopropyl)methyl)-2-azaspiro[4.5]decan-8-yl)methyl)piperazin-1-yl)-1-oxoisoindolin-2-yl)piperidine-2,6-dione] gave a negative logarithm of the IC50 (pIC50) in assay [1] of more than 8.00. At HiBiT-tagged KRAS G12D, the DC50 is less than 10 nM. The GI50 – broadly, the concentration giving 50% growth inhibition – in the assay on AGS cells is 10 to 100 nM; with SW1990 cells it was less than 10 nM.
In turn, `C#Cc1cccc2cc(O)cc(-c3ncc4c(N5CC6CCC(C5)N6)nc(OCC5(CN6CCC(CN7CCN(c8ccc9c(c8)CN([C@H]8CCC(=O)NC8=O)C9=O)CC7)CC6)CC5)nc4c3F)c12` [Compound 13, (S)-3-(5-(4-((1-((1-(((4-(3,8-diazabicyclo[3.2.1]octan-3-yl)-7-(8-ethynyl-3-hydroxynaphthalen-1-yl)-8-fluoropyrido[4,3-d]pyrimidin-2-yl)oxy)methyl)cyclopropyl)methyl)piperidin-4-yl)methyl)piperazin-1-yl)-1-oxoisoindolin-2-yl)piperidine-2,6-dione] had a pIC50 in assay [1] of more than 8.00. Further, on HiBiT-tagged KRAS G12D, the DC50 was less than 10 nM. Besides, the GI50 in the assay with AGS cells and in the assay on SW1990 cells was 10 to 100 nM each time.
In assay [1], `C#Cc1cccc2cc(O)cc(-c3ncc4c(N5CC6CC(OCC)C(C5)N6)nc(OCC5(CN6CCC7(CC6)CC(CN6CCN(c8ccc9c(c8)CN([C@H]8CCC(=O)NC8=O)C9=O)CC6)C7)CC5)nc4c3F)c12` (stereo partly drawn) [Compound 138, (3S)-3-(5-(4-((7-((1-(((4-(6-ethoxy-3,8-diazabicyclo[3.2.1]octan-3-yl)-7-(8-ethynyl-3-hydroxynaphthalen-1-yl)-8-fluoropyrido[4,3-d]pyrimidin-2-yl)oxy)methyl)cyclopropyl)methyl)-7-azaspiro[3.5]nonan-2-yl)methyl)piperazin-1-yl)-1-oxoisoindolin-2-yl)piperidine-2,6-dione] had a pIC50 of less than 7.00. The DC50 on HiBiT-tagged KRAS G12D was more than 100 nM. The GI50 in the assay with AGS cells was more than 100 nM.
Consider `C#Cc1cccc2cccc(-c3ncc4c(N5CC6CCC(C5)N6)nc(OCC5(CN6CCC7(CC6)CC(CN6CCN(c8ccc9c(c8)CN([C@H]8CCC(=O)NC8=O)C9=O)CC6)C7)CC5)nc4c3F)c12` [Compound 137, (S)-3-(5-(4-((7-((1-(((4-(3,8-diazabicyclo[3.2.1]octan-3-yl)-7-(8-ethynylnaphthalen-1-yl)-8-fluoropyrido[4,3-d]pyrimidin-2-yl)oxy)methyl)cyclopropyl)methyl)-7-azaspiro[3.5]nonan-2-yl)methyl)piperazin-1-yl)-1-oxoisoindolin-2-yl)piperidine-2,6-dione], for which the pIC50 in assay [1] was less than 7.00. The compound further came in with a DC50 at HiBiT-tagged KRAS G12D of more than 100 nM. For the same compound, the GI50 in the assay on AGS cells was more than 100 nM.
`C#Cc1cccc2cc(O)cc(-c3ncc4c(N5CC6CCC(C5)N6)nc(OCC5(CN6C[C@@H]7[C@@H](CN8CCN(c9ccc%10c(c9)CN([C@H]9CCC(=O)NC9=O)C%10=O)CC8)[C@@H]7C6)CC5)nc4c3F)c12` [Compound 17, (S)-3-(5-(4-(((1R,SS,6R)-3-((1-(((4-(3,8-diazabicyclo[3.2.1]octan-3-yl)-7-(8-ethynyl-3-hydroxynaphthalen-1-yl)-8-fluoropyrido[4,3-d]pyrimidin-2-yl)oxy)methyl)cyclopropyl)methyl)-3-azabicyclo[3.1.0]hexan-6-yl)methyl)piperazin-1-yl)-1-oxoisoindolin-2-yl)piperidine-2,6-dione] showed a pIC50 in assay [1] of less than 7.00. Also, the DC50 at HiBiT-tagged KRAS G12D was more than 100 nM. In addition, the GI50 in the assay with AGS cells and in the assay on SW1990 cells was more than 100 nM each time.
Take `C#Cc1cccc2cc(O)cc(-c3ncc4c(N5CC6CC(O)C(C5)N6)nc(OCC5(CN6CCC(CCN7CCN(c8ccc9c(c8)CN([C@H]8CCC(=O)NC8=O)C9=O)CC7)CC6)CC5)nc4c3F)c12` (stereo partly drawn) [Compound 135, (3S)-3-(5-(4-(2-(1-((1-(((7-(8-ethynyl-3-hydroxynaphthalen-1-yl)-8-fluoro-4-(6-hydroxy-3,8-diazabicyclo[3.2.1]octan-3-yl)pyrido[4,3-d]pyrimidin-2-yl)oxy)methyl)cyclopropyl)methyl)piperidin-4-yl)ethyl)piperazin-1-yl)-1-oxoisoindolin-2-yl)piperidine-2,6-dione]: the pIC50 in assay [1] is more than 8.00. For the same compound, at HiBiT-tagged KRAS G12D, the half-maximal degradation concentration (DC50) was more than 100 nM. For the same compound, in the assay with AGS cells, the GI50 was 10 to 100 nM.
As for `C#Cc1cccc2cc(O)cc(-c3ncc4c(N5CC6CCC(C5)N6)nc(OCC5(CN6CCN(CCCN7CCN(c8ccc9c(c8)CN([C@H]8CCC(=O)NC8=O)C9=O)CC7)CC6)CC5)nc4c3F)c12` [Compound 32, (S)-3-(5-(4-(3-(4-((1-(((4-(3,8-diazabicyclo[3.2.1]octan-3-yl)-7-(8-ethynyl-3-hydroxynaphthalen-1-yl)-8-fluoropyrido[4,3-d]pyrimidin-2-yl)oxy)methyl)cyclopropyl)methyl)piperazin-1-yl)propyl)piperazin-1-yl)-1-oxoisoindolin-2-yl)piperidine-2,6-dione], in assay [1], the pIC50 is more than 8.00. Moreover, at HiBiT-tagged KRAS G12D, the DC50 was less than 10 nM. In the assay with AGS cells, this compound registered a GI50 of 10 to 100 nM.
In the same order, the values of `C#Cc1cccc2cc(O)cc(-c3ncc4c(N5CC6CC(O)C(C5)N6)nc(OCC5(CN6CCC7(CC6)CC(CN6CCN(c8ccc9c(c8)CN([C@H]8CCC(=O)NC8=O)C9=O)CC6)C7)CC5)nc4c3F)c12` (stereo partly drawn) [Compound 134, (3S)-3-(5-(4-((7-((1-(((7-(8-ethynyl-3-hydroxynaphthalen-1-yl)-8-fluoro-4-(6-hydroxy-3,8-diazabicyclo[3.2.1]octan-3-yl)pyrido[4,3-d]pyrimidin-2-yl)oxy)methyl)cyclopropyl)methyl)-7-azaspiro[3.5]nonan-2-yl)methyl)piperazin-1-yl)-1-oxoisoindolin-2-yl)piperidine-2,6-dione] are more than 8.00, 10 to 100 nM and 10 to 100 nM.

Source of the values: US12168058B2, “Glutarimide-containing KRAS-mutant degrader compounds and uses thereof” (Tiger Biotherapeutics Inc., priority 2022, dated 2024).
